Columns and labels:
Assay in all cases: relative viability (nuclei count vs DMSO), 5 days (fraction); higher = more cells survive
Dactolisib + Foretinib = compound: Cn1c(=O)n(-c2ccc(C(C)(C)C#N)cc2)c2c3cc(-c4cnc5ccccc5c4)ccc3ncc21 [Dactolisib] + COc1cc2c(Oc3ccc(NC(=O)C4(C(=O)Nc5ccc(F)cc5)CC4)cc3F)ccnc2cc1OCCCN1CCOCC1 [Foretinib] (partner 0.25 µM)
Procedure, shortened: (§1)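 Dosing by pin tool came one day after lung cancer cell lines were seeded in 1536-well plates, using either one drug or a fixed anchor-drug dose plus five library-drug doses (not always all listed) in √10 steps. After 5 days, nuclei were counted on 4× images. Relative viability is treated-well nuclei count divided by vehicle-well nuclei count, and values are medians of duplicate plates.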

Dactolisib + Phenformin = compound: Cn1c(=O)n(-c2ccc(C(C)(C)C#N)cc2)c2c3cc(-c4cnc5ccccc5c4)ccc3ncc21 [Dactolisib] + N=C(N)NC(=N)NCCc1ccccc1 [Phenformin] (partner 250 µM)
Procedure, shortened: as §1

AZ505 + Alpelisib = compound: C1CCC(CC1)N(CCNCCC2=C3C(=C(C=C2)O)NC(=O)CO3)C(=O)CCNCCC4=CC(=C(C=C4)Cl)Cl [AZ505] + Cc1nc(NC(=O)N2CCC[C@H]2C(N)=O)sc1-c1ccnc(C(C)(C)C(F)(F)F)c1 [Alpelisib] (partner 2 µM)
Procedure, shortened: as §1

AZ505 + Dasatinib = compound: C1CCC(CC1)N(CCNCCC2=C3C(=C(C=C2)O)NC(=O)CO3)C(=O)CCNCCC4=CC(=C(C=C4)Cl)Cl [AZ505] + Cc1nc(Nc2ncc(C(=O)Nc3c(C)cccc3Cl)s2)cc(N2CCN(CCO)CC2)n1 [Dasatinib] (partner 0.075 µM)
Procedure, shortened: as §1

Cell Line	relative viability (Dactolisib + Foretinib; first compound 0.006325 µM)	relative viability (Dactolisib + Foretinib; first compound 0.02 µM)	relative viability (Dactolisib + Foretinib; first compound 0.06325 µM)	relative viability (Dactolisib + Foretinib; first compound 0.2 µM)	relative viability (Dactolisib + Phenformin; first compound 0.002 µM)	relative viability (Dactolisib + Phenformin; first compound 0.006325 µM)	relative viability (Dactolisib + Phenformin; first compound 0.02 µM)	relative viability (Dactolisib + Phenformin; first compound 0.06325 µM)	relative viability (Dactolisib + Phenformin; first compound 0.2 µM)	relative viability (AZ505 + Alpelisib; first compound 0.08 µM)	relative viability (AZ505 + Alpelisib; first compound 0.253 µM)	relative viability (AZ505 + Alpelisib; first compound 0.8 µM)	relative viability (AZ505 + Alpelisib; first compound 2.53 µM)	relative viability (AZ505 + Alpelisib; first compound 8 µM)	relative viability (AZ505 + Dasatinib; first compound 0.08 µM)	relative viability (AZ505 + Dasatinib; first compound 0.253 µM)	relative viability (AZ505 + Dasatinib; first compound 0.8 µM)	relative viability (AZ505 + Dasatinib; first compound 2.53 µM)	relative viability (AZ505 + Dasatinib; first compound 8 µM)	relative viability (Dactolisib + Foretinib; first compound 0.002 µM)
NCI-H2023	0.672	0.491	0.343	0.153	0.43	0.361	0.309	0.14	0.122	0.561	0.618	0.588	0.491	0.533	0.509	0.534	0.58	0.503	0.732	
NCI-H2085	1.05	0.747	0.337	0.301	0.839	0.689	0.524	0.348	0.281	0.825	0.905	0.884	1.01	1.01	0.246	0.242	0.234	0.252	0.237	1.09
NCI-H2087	0.919	0.817	0.378	0.33	0.622	0.454	0.378	0.286	0.123	0.863	1.03	1.01	1.14	0.997	0.832	0.669	0.808	0.551	0.884	0.979
NCI-H2126	1.24	1.08	0.653	0.498	0.562	0.513	0.534	0.435	0.366	0.729	0.781	0.771	0.746	0.822	0.578	0.579	0.601	0.646	0.586	1.32
NCI-H2170	1.01	0.895	0.85	0.174	0.454	0.433	0.48	0.434	0.284	0.804	0.914	0.719	0.846	0.918	0.541	0.608	0.444	0.695	0.509	0.995
NCI-H2228	0.675	0.406	0.191	0.181	0.302	0.272	0.179	0.192	0.164	0.627	0.554	0.677	0.69	0.748	0.447	0.421	0.51	0.457	0.443	0.875
NCI-H2347	1	0.693	0.765	0.486	0.731	0.409	0.381	0.329	0.264	0.558	0.591	0.643	0.522	0.714	0.254				0.279	0.848
NCI-H2405	1.06	1.05	0.606	0.475	0.403	0.379	0.374	0.269	0.256	0.4	0.426	0.503	0.384	0.508	0.187	0.151	0.133	0.203	0.176	1.02
NCI-H3122	0.934	1.05	1.03	0.855	0.381	0.385	0.416	0.378	0.317	0.79	0.677	0.772	0.721	0.836	0.729	0.829	0.806	0.661	0.899	0.932
PC-3 [JPC-3]	1.06	1.03	0.816	0.565	0.494	0.485	0.475	0.47	0.469	0.914	0.961	0.941	0.919	0.979	0.848	0.968	0.864	0.937	0.858	1.13
PC-14	0.97	0.973	0.592	0.399	0.642	0.523	0.45	0.29	0.144	0.81	0.964	0.925	0.906	0.961	0.219	0.241	0.296	0.264	0.227	0.982
RERF-LC-KJ	0.826	0.87	0.527	0.399	0.42	0.415	0.428	0.298	0.302	0.775	0.767	0.741	0.901	0.863	0.72	0.772	0.763	0.743	0.752	0.852
SK-LU-1	0.713	0.575	0.382	0.245	0.273	0.491	0.414	0.259	0.185	0.499	0.846	0.537	0.69	0.741	0.182	0.168	0.163	0.161	0.16	0.806
SK-MES-1	0.818	0.906	0.571	0.397	0.667	0.662	0.627	0.388	0.212	0.881	0.954	0.922	0.873	0.964	0.373	0.402	0.302	0.353	0.36	1.04
SW 1573	0.964	0.875	0.34	0.371	0.382	0.238	0.31	0.139	0.175	0.658	0.714	0.661	0.82	0.858	0.476	0.605	0.414	0.594	0.426	0.996
